Reference: ChEMBL document CHEMBL1134169, “Serotonergic and dopaminergic activities of rigidified (R)-aporphine derivatives” (Bioorg Med Chem Lett, 2001)
pKi: −log10 of the molar value.

Assays:
[1] = target: T1, 5-hydroxytryptamine receptor 1A (Homo sapiens, UniProt P08908); assay: In vitro binding affinity towards cloned human 5-hydroxytryptamine 1A receptor expressed in Chinese hamster ovary (CHO) cells using [3H]8-OH-DPAT as radioligand; format: cell-based
T1 sequence (P08908 whole entry): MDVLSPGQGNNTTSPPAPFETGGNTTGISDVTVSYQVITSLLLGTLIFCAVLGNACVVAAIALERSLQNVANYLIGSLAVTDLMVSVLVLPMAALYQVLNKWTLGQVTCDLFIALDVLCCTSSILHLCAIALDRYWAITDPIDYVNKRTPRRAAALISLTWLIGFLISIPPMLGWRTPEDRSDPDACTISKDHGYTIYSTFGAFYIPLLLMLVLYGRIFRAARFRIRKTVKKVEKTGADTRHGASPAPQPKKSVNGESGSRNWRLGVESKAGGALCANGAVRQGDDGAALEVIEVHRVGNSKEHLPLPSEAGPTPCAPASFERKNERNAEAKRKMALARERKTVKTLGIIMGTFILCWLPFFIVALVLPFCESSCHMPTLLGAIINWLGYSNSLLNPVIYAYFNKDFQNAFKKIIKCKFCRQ

[2] = target: 5-hydroxytryptamine receptor 7 (Rattus norvegicus, UniProt P32305); assay: In vitro binding affinity towards cloned rat 5-hydroxytryptamine 7 receptor using [3H]5-HT as radioligand
Chain of 5-hydroxytryptamine receptor 7 (P32305 whole entry): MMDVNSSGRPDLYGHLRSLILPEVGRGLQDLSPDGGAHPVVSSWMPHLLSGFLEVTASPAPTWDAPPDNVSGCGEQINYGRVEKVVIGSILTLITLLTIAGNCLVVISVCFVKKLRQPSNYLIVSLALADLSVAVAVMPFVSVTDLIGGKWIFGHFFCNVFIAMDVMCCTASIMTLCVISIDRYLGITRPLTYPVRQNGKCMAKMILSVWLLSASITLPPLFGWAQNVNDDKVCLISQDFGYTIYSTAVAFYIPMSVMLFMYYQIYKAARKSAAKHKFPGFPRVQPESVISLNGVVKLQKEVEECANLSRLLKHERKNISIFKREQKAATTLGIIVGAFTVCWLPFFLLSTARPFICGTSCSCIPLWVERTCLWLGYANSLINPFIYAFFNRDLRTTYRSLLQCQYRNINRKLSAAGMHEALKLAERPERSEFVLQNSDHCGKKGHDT

[3] = target: D(2) dopamine receptor (Homo sapiens, UniProt P14416); assay: In vitro binding affinity towards cloned human Dopamine receptor D2A using [3H]- Raclopride as radioligand.
Chain of D(2) dopamine receptor (P14416 whole entry): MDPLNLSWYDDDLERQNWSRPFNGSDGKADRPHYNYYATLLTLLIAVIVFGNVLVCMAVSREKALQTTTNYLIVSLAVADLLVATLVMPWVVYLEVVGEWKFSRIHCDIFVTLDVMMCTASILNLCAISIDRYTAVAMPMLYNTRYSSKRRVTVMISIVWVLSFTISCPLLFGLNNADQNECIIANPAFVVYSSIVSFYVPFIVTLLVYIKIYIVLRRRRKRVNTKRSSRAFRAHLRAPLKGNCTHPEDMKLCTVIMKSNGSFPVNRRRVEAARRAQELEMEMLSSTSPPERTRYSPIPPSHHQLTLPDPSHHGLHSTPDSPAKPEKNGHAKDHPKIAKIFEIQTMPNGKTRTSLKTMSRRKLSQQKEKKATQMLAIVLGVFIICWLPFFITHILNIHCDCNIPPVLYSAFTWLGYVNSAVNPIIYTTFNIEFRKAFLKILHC

[4] = target: T2, 5-hydroxytryptamine receptor 1A (Rattus norvegicus, UniProt P19327); assay: In vitro binding affinity towards 5-hydroxytryptamine 1A receptor using [3H]8-OH-DPAT as radioligand in rat hippocampus membrane.; format: cell membranes
T2 sequence (P19327 whole entry): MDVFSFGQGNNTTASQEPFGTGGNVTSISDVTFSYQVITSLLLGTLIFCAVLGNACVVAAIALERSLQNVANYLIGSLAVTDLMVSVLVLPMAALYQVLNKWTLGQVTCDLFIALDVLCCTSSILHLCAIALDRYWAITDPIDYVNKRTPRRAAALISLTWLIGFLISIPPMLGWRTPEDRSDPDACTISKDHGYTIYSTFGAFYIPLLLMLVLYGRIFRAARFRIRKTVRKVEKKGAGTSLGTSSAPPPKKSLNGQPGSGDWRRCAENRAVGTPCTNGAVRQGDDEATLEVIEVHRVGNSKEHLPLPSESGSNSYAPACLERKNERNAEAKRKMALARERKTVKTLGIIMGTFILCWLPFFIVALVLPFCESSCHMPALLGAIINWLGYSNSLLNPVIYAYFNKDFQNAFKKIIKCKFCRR

CN1CCc2ccc3cnc4cccc5c4c3c2[C@H]1C5 was tested, and the pKi [1] was 7.21, the pKi [2] was 7.57 and the pKi [3] was 5.88.

With CN1CCc2ccc3ncc4cccc5c4c3c2[C@H]1C5 the pKi [1] was 7.47, the pKi [2] was 7.09 and the pKi [3] was 6.49.

CN1CCc2ccc3c(=O)oc4cccc5c4c3c2[C@H]1C5 was tested, and the pKi [4] was 5.94, the pKi [2] was 6.55 and the pKi [3] was 6.27.

In the case of CN1CCc2ccc3oc(=O)c4cccc5c4c3c2[C@H]1C5, the pKi [4] was 5.69, the pKi [2] was 5.83 and the pKi [3] was 6.58.

CN1CCc2ccc3[nH]c(=O)c4cccc5c4c3c2[C@H]1C5 was tested, and the pKi [1] was 6.43, the pKi [2] was 6.47 and the pKi [3] was 5.21.

Molecule CN1CCc2ccc3c(=O)[nH]c4cccc5c4c3c2[C@H]1C5 has a pKi [1] of 6.75, a pKi [2] of 7.26 and a pKi [3] of 7.26.
